Data on four molecules can be found in patent publication US6759390B2, “Compounds and their uses” (priority 2000, dated 2004).

One test relates to PDH phosphatase. Kind of test: PDH phosphatase activation. It counts as biochemical. The following applies: 100 μM. An excerpt:
(§1) Methods for obtaining A-type and P-type mediators are set out in Caro et al, 1997, and in WO98/11116 and WO98/11117. Protocols for determining characteristic IPG biological activities such as PDH activation, PKA inhibition, acetylCoA activation, fructose-1,6-bis-phosphatase activity and lipogenesis are well known in the art, e.g. as described in Caro et al^[14].
(§2) The compounds of the invention can be tested for one or more the characteristic IPG-P and/or IPG-A activities mentioned above to determine whether they will be suitable for use a IPG mimetics or antagonists. Preferred assays measure the effect of the compounds on PDH phosphatase, PKA or lipogenesis. Protocols for these assays are provided in Caro et al^[14].

Test [1] relates to lipogenesis. As to the kind of experiment: basal lipogenesis stimulation. It counts as cell-based. The following applies: FIG. 2.
From the text: as §1, §2

For test [2], the system named is lipogenesis. As to the kind of experiment: glucose stimulated lipogenesis stimulation. Format: cell-based. The settings on record: FIG. 3.
From the text: as §1, §2

The next test has as its system PKA. Kind of test: PKA inhibition. It counts as biochemical.
From the text: as §1, §2

Each structure is given as a SMILES string.

`NC1C(OC2C(O)C(O)C(O)C(O)C2OP(=O)(O)O)OC(CO)C(O)C1O` [RGL1115, 1′-D-6-O-(2′-amino-2′-deoxy-α-D-glucanopyranosyl)-5-O-phosphate-myo-inositol]: in the test on PDH phosphatase, the PDH activation worked out at 18%.

In the test on PDH phosphatase, `NC1C(OC2C(O)C(O)C(O)C(O)C2O)OC(CO)C(O)C1OP(=O)(O)O` [RGL1029, O-(2′-amino-2′-deoxy-3′-phosphate-D-glucopyranosyl)-α(1,6)-D-myo-inositol] displayed a PDH activation of 361%. Moreover, the “effect on basal lipogenesis” value with lipogenesis [1] is reported as “stimulate lipogenesis”. For the same molecule, in the test on lipogenesis [2], the “effect on glucose stimulated lipogenesis” value is given as “stimulate lipogenesis”. Besides, the PKA inhibition in the test on PKA (0.1 μM) is reported as 59%; in the test with PKA (10 μM), 33%.

`NC1C(OC2C(O)C(O)C(O)C(O)C2O)OC(CO)C(OP(=O)(O)O)C1O` [RGL1027, O-(2′-amino-2′-deoxy-4′-phosphate-D-glucopyranosyl)-α(1,6)-D-myo-inositol] yielded a PDH activation in the test on PDH phosphatase of 132%. For the same molecule, in the test with lipogenesis [1], the “effect on basal lipogenesis” value is listed as “inhibits lipogenesis”. Moreover, the “effect on glucose stimulated lipogenesis” value in the test on lipogenesis [2] was “inhibits lipogenesis”. In addition, the PKA inhibition in the test with PKA (0.1 μM) was 18%; in the test on PKA (10 μM), 10%.

In turn, `N[C@H]1[C@@H](O[C@H]2[C@H](O)[C@H](O)[C@H](O)[C@@H](O)[C@@H]2O)O[C@H](COP(=O)(O)O)[C@@H](O)[C@@H]1O` [RGL1023, O-(2′-amino-2′-deoxy-6′-phosphate-D-glucopyranosyl)-α(1,6)-D-myo-inositol] registered a PDH activation with PDH phosphatase of 14%. In the test on lipogenesis [1], the “effect on basal lipogenesis” value is on record as “stimulate lipogenesis”. Further, in the test on lipogenesis [2], the “effect on glucose stimulated lipogenesis” value was “stimulate lipogenesis”.
